Literature values in patent US20230173296A1, “INTRACAVITARY PHOTODYNAMIC THERAPY” (Simphotek, Inc., priority 2020, published 2023).
Where two headings read alike, the source gives them in different places.

Key:
Human prostate = details: Davidson et. al., 2009
tumors in mice = details: Qiu et. al., 2016
cancer in rabbits = details: I-PDT, Shafirstein et. al., 2018
cancer in mice = details: I-PDT, Shafirstein et. al., 2018

Compound: CC[C@H]1c2cc3[n-]c4c(c3C)C(=O)[C@H](C(=O)OC)c4c3nc(cc4[n-]c(cc(n2)[C@@H]1C)c(C(C)=O)c4C)[C@@H](C)[C@@H]3CCC(=O)O.[Pd+2] [TOOKAD]
- Threshold Light Dose (Human prostate): >23 (Davidson et. al., 2009) J/cm^2

Compound: Oc1cccc(-c2c3nc(c(-c4cccc(O)c4)c4ccc([nH]4)c(-c4cccc(O)c4)c4nc(c(-c5cccc(O)c5)c5ccc2[nH]5)CC4)C=C3)c1 [mTHPC]
- ε, PS extinction coefficient (650 nm): mTHPC (650 nm): 0.048 cm^−1 μM^−1

Compound: Photofrin
- Threshold [^1O2]dose (tumors in mice): >1.0 (Qiu et. al., 2016) mM
- Threshold Light Dose Rate ϕT (cancer in rabbits): 16.5 (Shafirstein et. al., 2018) mW/cm^2
- ε, PS extinction coefficient (630 nm): Photofrin (630 nm): 0.0035 cm^−1 μM^−1
- Threshold Light Dose Rate ϕT (cancer in mice): 8.4 (Shafirstein et. al., 2018) mW/cm^2

Compound: benzoporphyrin derivative monoacid ring A [BPD]
- ε, PS extinction coefficient (690 nm): BPD (690 nm): 0.0783 cm^−1 μM^−1
